Measured values reported in patent publication US20240002952A1, “METHOD FOR IN VITRO DIAGNOSIS OF MUCOSITIS IN CANCER PATIENTS UNDERGOING ANTITUMOR THERAPY” (ISTITUTI FISIOTERAPICI OSPITALIERI, priority 2020, published 2024).

Tests used:
[1] = tested on: Primary epidermal keratinocytes (HEKa)
[2] = tested on: Primary gingival keratinocytes

Compound | CC50 Value Primary epidermal keratinocytes (HEKa) [1] | CC50 Value Primary gingival keratinocytes [2] | CC50 [1] [µM] | CC50 [2] [µM]
O=c1[nH]cc(F)c(=O)[nH]1 [5-FLUOROURACILE, 5-fluorouracile] | Not calculable | Not calculable | – | –
Nc1ncn([C@@H]2O[C@H](CO)[C@@H](O)[C@H]2O)c(=O)n1 [AZACYTIDINE, azacytidine] | – | – | 51.2 | 1.8
CCCCCOC(=O)Nc1nc(=O)n([C@@H]2O[C@H](C)[C@@H](O)[C@H]2O)cc1F [CAPECITABIN, capecitabin] | Not calculable | – | – | 103
O=C1[O][Pt]2([NH][C@@H]3CCCC[C@H]3[NH]2)[O]C1=O [OXALIPLATIN, oxaliplatin] | – | – | 32.3 | 46
